{"source": "the NIST ThermoML archive (doi:10.1021/je7003929)", "experiment": "xn = mol fraction of the nth substance listed", "conditions": "Liquid, Vibrating tube method", "note": "Numbers after ± are expanded uncertainties."}
{"smiles": "c1ccc2sccc2c1", "note": "[benzo[b]thiophene] + CCCCCC", "values": [{"measurement": "mass density", "setting": "332.66 K, 11013 kPa, x2 = 0.2588", "value": "998.9 ± 0.5", "unit": "kg/m3"}, {"measurement": "mass density", "setting": "332.66 K, 12006 kPa, x2 = 0.2588", "value": "999.7 ± 0.5", "unit": "kg/m3"}, {"measurement": "mass density", "setting": "332.66 K, 13011 kPa, x2 = 0.2588", "value": "1000.4 ± 0.5", "unit": "kg/m3"}, {"measurement": "mass density", "setting": "332.66 K, 14000 kPa, x2 = 0.2588", "value": "1001.2 ± 0.5", "unit": "kg/m3"}, {"measurement": "mass density", "setting": "332.66 K, 15025 kPa, x2 = 0.2588", "value": "1002 ± 0.5", "unit": "kg/m3"}, {"measurement": "mass density", "setting": "332.66 K, 16005 kPa, x2 = 0.2588", "value": "1002.6 ± 0.5", "unit": "kg/m3"}, {"measurement": "mass density", "setting": "332.66 K, 17000 kPa, x2 = 0.2588", "value": "1003.3 ± 0.5", "unit": "kg/m3"}, {"measurement": "mass density", "setting": "332.66 K, 18002 kPa, x2 = 0.2588", "value": "1004.1 ± 0.5", "unit": "kg/m3"}, {"measurement": "mass density", "setting": "332.66 K, 19009 kPa, x2 = 0.2588", "value": "1004.8 ± 0.5", "unit": "kg/m3"}, {"measurement": "mass density", "setting": "332.66 K, 20016 kPa, x2 = 0.2588", "value": "1005.5 ± 0.5", "unit": "kg/m3"}, {"measurement": "mass density", "setting": "332.77 K, 1019 kPa, x2 = 0.0629", "value": "1094.5 ± 0.5", "unit": "kg/m3"}, {"measurement": "mass density", "setting": "332.77 K, 2029 kPa, x2 = 0.0629", "value": "1095.3 ± 0.5", "unit": "kg/m3"}, {"measurement": "mass density", "setting": "332.77 K, 3030 kPa, x2 = 0.0629", "value": "1096 ± 0.5", "unit": "kg/m3"}, {"measurement": "mass density", "setting": "332.77 K, 4019 kPa, x2 = 0.0629", "value": "1096.7 ± 0.5", "unit": "kg/m3"}, {"measurement": "mass density", "setting": "332.77 K, 5026 kPa, x2 = 0.0629", "value": "1097.4 ± 0.5", "unit": "kg/m3"}, {"measurement": "mass density", "setting": "332.77 K, 6037 kPa, x2 = 0.0629", "value": "1098.1 ± 0.5", "unit": "kg/m3"}, {"measurement": "mass density", "setting": "332.77 K, 7035 kPa, x2 = 0.0629", "value": "1098.8 ± 0.5", "unit": "kg/m3"}, {"measurement": "mass density", "setting": "332.77 K, 8021 kPa, x2 = 0.0629", "value": "1099.5 ± 0.5", "unit": "kg/m3"}, {"measurement": "mass density", "setting": "332.77 K, 9012 kPa, x2 = 0.0629", "value": "1100.1 ± 0.5", "unit": "kg/m3"}, {"measurement": "mass density", "setting": "332.77 K, 10008 kPa, x2 = 0.0629", "value": "1100.8 ± 0.5", "unit": "kg/m3"}, {"measurement": "mass density", "setting": "332.77 K, 11026 kPa, x2 = 0.0629", "value": "1101.5 ± 0.5", "unit": "kg/m3"}, {"measurement": "mass density", "setting": "332.77 K, 12020 kPa, x2 = 0.0629", "value": "1102.2 ± 0.5", "unit": "kg/m3"}, {"measurement": "mass density", "setting": "332.77 K, 13012 kPa, x2 = 0.0629", "value": "1102.8 ± 0.5", "unit": "kg/m3"}, {"measurement": "mass density", "setting": "332.77 K, 14016 kPa, x2 = 0.0629", "value": "1103.4 ± 0.5", "unit": "kg/m3"}, {"measurement": "mass density", "setting": "332.77 K, 15015 kPa, x2 = 0.0629", "value": "1104.2 ± 0.5", "unit": "kg/m3"}, {"measurement": "mass density", "setting": "332.77 K, 16015 kPa, x2 = 0.0629", "value": "1104.7 ± 0.5", "unit": "kg/m3"}, {"measurement": "mass density", "setting": "332.77 K, 17020 kPa, x2 = 0.0629", "value": "1105.4 ± 0.5", "unit": "kg/m3"}, {"measurement": "mass density", "setting": "332.77 K, 18020 kPa, x2 = 0.0629", "value": "1106.1 ± 0.5", "unit": "kg/m3"}, {"measurement": "mass density", "setting": "332.77 K, 19022 kPa, x2 = 0.0629", "value": "1106.7 ± 0.5", "unit": "kg/m3"}, {"measurement": "mass density", "setting": "332.77 K, 20017 kPa, x2 = 0.0629", "value": "1107.3 ± 0.5", "unit": "kg/m3"}, {"measurement": "mass density", "setting": "332.82 K, 1026 kPa, x2 = 0.9432", "value": "650.1 ± 0.5", "unit": "kg/m3"}, {"measurement": "mass density", "setting": "332.82 K, 2016 kPa, x2 = 0.9432", "value": "651.4 ± 0.5", "unit": "kg/m3"}, {"measurement": "mass density", "setting": "332.82 K, 3016 kPa, x2 = 0.9432", "value": "652.8 ± 0.5", "unit": "kg/m3"}, {"measurement": "mass density", "setting": "332.82 K, 4023 kPa, x2 = 0.9432", "value": "654.1 ± 0.5", "unit": "kg/m3"}, {"measurement": "mass density", "setting": "332.82 K, 5004 kPa, x2 = 0.9432", "value": "655.4 ± 0.5", "unit": "kg/m3"}, {"measurement": "mass density", "setting": "332.82 K, 6016 kPa, x2 = 0.9432", "value": "656.7 ± 0.5", "unit": "kg/m3"}, {"measurement": "mass density", "setting": "332.82 K, 7012 kPa, x2 = 0.9432", "value": "658 ± 0.5", "unit": "kg/m3"}, {"measurement": "mass density", "setting": "332.82 K, 8018 kPa, x2 = 0.9432", "value": "659.2 ± 0.5", "unit": "kg/m3"}, {"measurement": "mass density", "setting": "332.82 K, 9014 kPa, x2 = 0.9432", "value": "660.5 ± 0.5", "unit": "kg/m3"}, {"measurement": "mass density", "setting": "332.82 K, 10014 kPa, x2 = 0.9432", "value": "661.6 ± 0.5", "unit": "kg/m3"}, {"measurement": "mass density", "setting": "332.82 K, 11009 kPa, x2 = 0.9432", "value": "662.8 ± 0.5", "unit": "kg/m3"}, {"measurement": "mass density", "setting": "332.82 K, 12005 kPa, x2 = 0.9432", "value": "664 ± 0.5", "unit": "kg/m3"}, {"measurement": "mass density", "setting": "332.82 K, 13020 kPa, x2 = 0.9432", "value": "665.1 ± 0.5", "unit": "kg/m3"}, {"measurement": "mass density", "setting": "332.82 K, 14007 kPa, x2 = 0.9432", "value": "666.3 ± 0.5", "unit": "kg/m3"}, {"measurement": "mass density", "setting": "332.82 K, 15005 kPa, x2 = 0.9432", "value": "667.3 ± 0.5", "unit": "kg/m3"}, {"measurement": "mass density", "setting": "332.82 K, 16012 kPa, x2 = 0.9432", "value": "668.4 ± 0.5", "unit": "kg/m3"}, {"measurement": "mass density", "setting": "332.82 K, 17015 kPa, x2 = 0.9432", "value": "669.5 ± 0.6", "unit": "kg/m3"}, {"measurement": "mass density", "setting": "332.82 K, 18010 kPa, x2 = 0.9432", "value": "670.6 ± 0.6", "unit": "kg/m3"}, {"measurement": "mass density", "setting": "332.82 K, 19000 kPa, x2 = 0.9432", "value": "671.6 ± 0.6", "unit": "kg/m3"}, {"measurement": "mass density", "setting": "332.82 K, 20001 kPa, x2 = 0.9432", "value": "672.6 ± 0.6", "unit": "kg/m3"}, {"measurement": "mass density", "setting": "332.86 K, 1031 kPa, x2 = 0.7491", "value": "743.7 ± 0.5", "unit": "kg/m3"}, {"measurement": "mass density", "setting": "332.86 K, 2024 kPa, x2 = 0.7491", "value": "744.9 ± 0.5", "unit": "kg/m3"}, {"measurement": "mass density", "setting": "332.86 K, 3019 kPa, x2 = 0.7491", "value": "746.1 ± 0.5", "unit": "kg/m3"}, {"measurement": "mass density", "setting": "332.86 K, 4001 kPa, x2 = 0.7491", "value": "747.2 ± 0.5", "unit": "kg/m3"}, {"measurement": "mass density", "setting": "332.86 K, 5002 kPa, x2 = 0.7491", "value": "748.4 ± 0.5", "unit": "kg/m3"}, {"measurement": "mass density", "setting": "332.86 K, 6020 kPa, x2 = 0.7491", "value": "749.5 ± 0.5", "unit": "kg/m3"}, {"measurement": "mass density", "setting": "332.86 K, 7005 kPa, x2 = 0.7491", "value": "750.6 ± 0.5", "unit": "kg/m3"}, {"measurement": "mass density", "setting": "332.86 K, 8013 kPa, x2 = 0.7491", "value": "751.7 ± 0.5", "unit": "kg/m3"}, {"measurement": "mass density", "setting": "332.86 K, 9004 kPa, x2 = 0.7491", "value": "752.8 ± 0.5", "unit": "kg/m3"}, {"measurement": "mass density", "setting": "332.86 K, 10000 kPa, x2 = 0.7491", "value": "753.8 ± 0.5", "unit": "kg/m3"}, {"measurement": "mass density", "setting": "332.86 K, 11019 kPa, x2 = 0.7491", "value": "754.9 ± 0.5", "unit": "kg/m3"}, {"measurement": "mass density", "setting": "332.86 K, 12006 kPa, x2 = 0.7491", "value": "755.9 ± 0.5", "unit": "kg/m3"}, {"measurement": "mass density", "setting": "332.86 K, 13014 kPa, x2 = 0.7491", "value": "757 ± 0.5", "unit": "kg/m3"}, {"measurement": "mass density", "setting": "332.86 K, 14008 kPa, x2 = 0.7491", "value": "757.9 ± 0.5", "unit": "kg/m3"}, {"measurement": "mass density", "setting": "332.86 K, 15007 kPa, x2 = 0.7491", "value": "758.9 ± 0.5", "unit": "kg/m3"}, {"measurement": "mass density", "setting": "332.86 K, 16009 kPa, x2 = 0.7491", "value": "759.9 ± 0.5", "unit": "kg/m3"}, {"measurement": "mass density", "setting": "332.86 K, 17002 kPa, x2 = 0.7491", "value": "760.9 ± 0.5", "unit": "kg/m3"}, {"measurement": "mass density", "setting": "332.86 K, 18026 kPa, x2 = 0.7491", "value": "761.8 ± 0.5", "unit": "kg/m3"}, {"measurement": "mass density", "setting": "332.86 K, 19007 kPa, x2 = 0.7491", "value": "762.8 ± 0.5", "unit": "kg/m3"}, {"measurement": "mass density", "setting": "332.86 K, 20017 kPa, x2 = 0.7491", "value": "763.7 ± 0.5", "unit": "kg/m3"}]}
